Test results: article PMC11312813, “An Optimized Peptide Antagonist of CXCR4 Limits Survival of BCR–ABL1-Transformed Cells in Philadelphia-Chromosome-Positive B-Cell Acute Lymphoblastic Leukemia” (International Journal of Molecular Sciences, 2024)

System: SupB15 cells
Assay: Real-time cell growth by IncuCyte, SupB15
Assay type: cell-based, human
Conditions: 10 µM, 96 h; n = 3
Procedure: The cells were plated in 100 μL complete medium.

Substance: ILRWSRK * (Pal)-NH2 [JM#170, lipid-conjugated truncated version of EPI-X4, CXCR4 antagonist]
- SupB15 cell growth vs DMSO: significantly reduced SupB15 cell growth
